The test addresses T1, HiBiT-tagged MDM2 (Homo sapiens, UniProt Q00987).
T1 construct: expressed in transfected cells
Description: MDM2 HiBit HEK293T degradation. The test is classed as cell-based. The following applies: HEK293T cells stably expressing C-terminally HiBiT-tagged MDM2; 4 h; read-out: MDM2 HiBit HEK293T degradation 4 h: Average external-Abs DC50. The method, then:
HEK293T cells were grown overnight to 70-80% confluency in a 6-well plate in complete media (DMEM 10% FBS) in a 37° C. incubator with 5% CO2. Cells were transfected with 1 micrograms of C- or N-terminally HiBiT-tagged MDM2 constructs using Fugene 6 transfection reagent (Promega) as per manufacturer protocol. After overnight incubation at 37° C., growth media within the wells was replaced with selection media (DMEM+10% FBS+1 microgram/ml final concentration of Puromycin). Puromycin (selection antibiotic) concentrations required for complete cell kill were determined previously. Cells were monitored for the next 48h-96h to select for positively transfected cells. Surviving colonies were pooled and expanded in selection media. Expanded pools of HEK293T cells stably expressing C- and N-terminally HiBiT-tagged MDM2, were characterized using a MDM2 tool degrader and HaloPROTAC3 as positive control. HEK293T cells expressing C-terminally HiBiT-tagged MDM2 were subsequently used for assessment of degradation potencies for MDM2 degraders.
The letter codes for MDM2 degradation potency (DC50) include: A (<10 nM), B […], C (>100-1000 nM), and D (>1000 nM).
A general note: With HiBiT, luminescence reflects the tagged protein that the partner subunit can reach.

T1 sequence (Q00987 whole entry): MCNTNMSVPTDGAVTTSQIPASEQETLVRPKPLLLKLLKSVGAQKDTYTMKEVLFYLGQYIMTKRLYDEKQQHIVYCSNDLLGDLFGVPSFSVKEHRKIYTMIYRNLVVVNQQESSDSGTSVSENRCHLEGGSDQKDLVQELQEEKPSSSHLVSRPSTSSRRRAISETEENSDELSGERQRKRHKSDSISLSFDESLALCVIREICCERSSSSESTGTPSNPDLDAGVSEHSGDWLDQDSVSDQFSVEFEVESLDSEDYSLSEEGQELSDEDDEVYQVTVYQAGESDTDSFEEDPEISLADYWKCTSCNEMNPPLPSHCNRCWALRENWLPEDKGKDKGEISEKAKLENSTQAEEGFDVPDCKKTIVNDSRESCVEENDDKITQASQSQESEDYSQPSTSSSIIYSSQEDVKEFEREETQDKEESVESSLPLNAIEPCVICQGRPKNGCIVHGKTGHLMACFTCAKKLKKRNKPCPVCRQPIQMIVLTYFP

Turning to `Cn1c(=O)n(C2CCC(=O)NC2=O)c2ccc(N3CCN(C(=O)[C@H]4CC[C@H](NC(=O)[C@@H]5NC6(CCCCC6)[C@@]6(C(=O)Nc7cc(Cl)ccc76)[C@H]5c5cccc(Cl)c5F)CC4)C(C(=O)O)C3)cc21` (stereo partly shown) [I-142], the DC50 (commonly the midpoint of the concentration-degradation curve) lay in the range of 10 to 100 nM. In the case of `Cn1c(=O)n(C2CCC(=O)NC2=O)c2ccc(O[C@@H]3C[C@@H](C(=O)O)N(C(=O)[C@H]4CC[C@H](NC(=O)[C@@H]5NC6(CCCCC6)[C@@]6(C(=O)Nc7cc(Cl)ccc76)[C@H]5c5cccc(Cl)c5F)CC4)C3)cc21` (stereo partly shown) [I-143] it was 10 to 100 nM.

As for `Cn1c(=O)n(C2CCC(=O)NC2=O)c2ccc(C3CCN(CCC(=O)N4CCC(NC(=O)[C@@H]5NC6(CCCCC6)[C@@]6(C(=O)Nc7cc(Cl)ccc76)[C@H]5c5cccc(Cl)c5F)CC4)CC3)cc21` (stereo partly shown) [I-146], the DC50 was less than 10 nM. In the case of `Cn1c(=O)n(C2CCC(=O)NC2=O)c2ccc(CN3CCN(CCCN4CCC(NC(=O)[C@@H]5NC6(CCCCC6)[C@@]6(C(=O)Nc7cc(Cl)ccc76)[C@H]5c5cccc(Cl)c5F)CC4)CC3)cc21` (stereo partly shown) [I-147] it was 10 to 100 nM; in that of `Cc1ncsc1-c1ccc(CNC(=O)[C@@H]2C[C@@H](O)CN2C(=O)[C@@H](NC(=O)CCCCC2CCN(C(=O)[C@H]3CC[C@H](NC(=O)[C@@H]4NC5(CCCCC5)[C@@]5(C(=O)Nc6cc(Cl)ccc65)[C@H]4c4cccc(Cl)c4F)CC3)CC2)C(C)(C)C)cc1` [I-148], greater than 1000 nM; in that of `Cc1ncsc1-c1ccc(CNC(=O)[C@@H]2C[C@@H](O)CN2C(=O)[C@@H](NC(=O)C2(F)CC2)C(C)(C)C)c(OCCCCCCCCNC(=O)[C@H]2CC[C@H](NC(=O)[C@@H]3NC4(CCCCC4)[C@@]4(C(=O)Nc5cc(Cl)ccc54)[C@H]3c3cccc(Cl)c3F)CC2)c1` [I-149], greater than 1000 nM. As for `Cn1c(=O)n(C2CCC(=O)NC2=O)c2ccc(CCN3CCN(CCN4CCC(NC(=O)[C@@H]5NC6(CCCCC6)[C@@]6(C(=O)Nc7cc(Cl)ccc76)[C@H]5c5cccc(Cl)c5F)CC4)CC3)cc21` (stereo partly shown) [I-151], the figure is less than 10 nM; as for `Cn1c(=O)n(C2CCC(=O)NC2=O)c2cccc(C3CCN(CCN4CCC(NC(=O)[C@@H]5NC6(CCCCC6)[C@@]6(C(=O)Nc7cc(Cl)ccc76)[C@H]5c5cccc(Cl)c5F)CC4)CC3)c21` (stereo partly shown) [I-152], less than 10 nM. In the case of `Cn1c(=O)n(C2CCC(=O)NC2=O)c2ccc(-c3ccc(CCN4CCC(NC(=O)[C@@H]5NC6(CCCCC6)[C@@]6(C(=O)Nc7cc(Cl)ccc76)[C@H]5c5cccc(Cl)c5F)CC4)cc3)cc21` (stereo partly shown) [I-154] it was less than 10 nM; in that of `Cn1c(=O)n(C2CCC(=O)NC2=O)c2ccc(C3CCN([C@H]4CC[C@H](N5CCC(NC(=O)[C@@H]6NC7(CCCCC7)[C@@]7(C(=O)Nc8cc(Cl)ccc87)[C@H]6c6cccc(Cl)c6F)CC5)CC4)CC3)cc21` (stereo partly shown) [I-155], less than 10 nM. On to `O=C1CCN(c2ccc(CCCCN3CCN(C(=O)[C@H]4CC[C@H](NC(=O)[C@@H]5NC6(CCCCC6)[C@@]6(C(=O)Nc7cc(Cl)ccc76)[C@H]5c5cccc(Cl)c5F)CC4)CC3)cc2)C(=O)N1` [I-156], for which the DC50 is greater than 1000 nM. As for `Cn1c(=O)n(C2CCC(=O)NC2=O)c2ccc(C3CCN(C(=O)CN4CCC(NC(=O)[C@@H]5NC6(CCC(C)(C)CC6)[C@@]6(C(=O)Nc7cc(Cl)ccc76)[C@H]5c5ccnc(Cl)c5F)CC4)CC3)cc21` (stereo partly shown) [I-160], the figure is less than 10 nM. In the case of `O=C1CCN(c2cnc3cc(C4CCN(C(=O)CN5CCC(NC(=O)[C@@H]6NC7(CCCCC7)[C@@]7(C(=O)Nc8cc(Cl)ccc87)[C@H]6c6cccc(Cl)c6F)CC5)CC4)ccn23)C(=O)N1` [I-164] it was 100 to 1000 nM; in that of `Cn1c(=O)n(C2CCC(=O)NC2=O)c2ccc(CN3CCN(CCN4CCC(NC(=O)[C@@H]5NC6(CCCCC6)[C@@]6(C(=O)Nc7cc(Cl)ccc76)[C@H]5c5cccc(Cl)c5F)CC4)CC3)cc21` (stereo partly shown) [I-167], 10 to 100 nM.

For the compound `Cn1c(=O)n(C2CCC(=O)NC2=O)c2ccc(C3CCN(C[C@H]4CC[C@H](NC(=O)[C@@H]5NC6(CCCCC6)[C@@]6(C(=O)Nc7cc(Cl)ccc76)[C@H]5c5cccc(Cl)c5F)CC4)C(C(=O)O)C3)cc21` (stereo partly shown) [I-168], the DC50 was in the range of 10 to 100 nM. As for `O=C1CCN(c2cnc3cc(N4CCN(CCN5CCC(NC(=O)[C@@H]6NC7(CCCCC7)[C@@]7(C(=O)Nc8cc(Cl)ccc87)[C@H]6c6cccc(Cl)c6F)CC5)CC4)ccn23)C(=O)N1` [I-169], the figure is 10 to 100 nM. In the case of `Cn1c(=O)n(C2CCC(=O)NC2=O)c2ccc(C3CCN(Cc4ccc(NC(=O)[C@@H]5NC6(CCCCC6)[C@@]6(C(=O)Nc7cc(Cl)ccc76)[C@H]5c5cccc(Cl)c5F)cc4C(=O)O)CC3)cc21` (stereo partly shown) [I-171] it was 10 to 100 nM; in that of `Cn1c(=O)n(C2CCC(=O)NC2=O)c2ccc(C3(O)CCN(C[C@H]4CC[C@H](NC(=O)[C@@H]5NC6(CCCCC6)[C@@]6(C(=O)Nc7cc(Cl)ccc76)[C@H]5c5cccc(Cl)c5F)CC4)CC3)cc21` (stereo partly shown) [I-194], less than 10 nM; in that of `Cn1c(=O)n(C2CCC(=O)NC2=O)c2ccc(CN3CCN(C[C@H]4CC[C@H](NC(=O)[C@@H]5NC6(CCCCC6)[C@@]6(C(=O)Nc7cc(Cl)ccc76)[C@H]5c5cccc(Cl)c5F)CC4)C(C(=O)O)C3)cc21` (stereo partly shown) [I-196], 10 to 100 nM. As for `Cn1c(=O)n(C2CCC(=O)NC2=O)c2ccc(CCN3CCN(C[C@H]4CC[C@H](NC(=O)[C@@H]5NC6(CCCCC6)[C@@]6(C(=O)Nc7cc(Cl)ccc76)[C@H]5c5cccc(Cl)c5F)CC4)C(C(=O)O)C3)cc21` (stereo partly shown) [I-197], the DC50 was less than 10 nM. As for `Cn1c(=O)n(C2CCC(=O)NC2=O)c2ccc(CCCO[C@@H]3C[C@@H](C(=O)O)N(C[C@H]4CC[C@H](NC(=O)[C@@H]5NC6(CCCCC6)[C@@]6(C(=O)Nc7cc(Cl)ccc76)[C@H]5c5cccc(Cl)c5F)CC4)C3)cc21` (stereo partly shown) [I-198], the figure is 100 to 1000 nM. In the case of `Cn1c(=O)n(C2CCC(=O)NC2=O)c2ccc(CCCO[C@@H]3C[C@H](C(=O)O)N(C[C@H]4CC[C@H](NC(=O)[C@@H]5NC6(CCCCC6)[C@@]6(C(=O)Nc7cc(Cl)ccc76)[C@H]5c5cccc(Cl)c5F)CC4)C3)cc21` (stereo partly shown) [I-199] it was 10 to 100 nM.

Regarding `Cn1c(=O)n(C2CCC(=O)NC2=O)c2ccc(O[C@@H]3C[C@@H](C(=O)O)N(C[C@H]4CC[C@H](NC(=O)[C@@H]5NC6(CCCCC6)[C@@]6(C(=O)Nc7cc(Cl)ccc76)[C@H]5c5cccc(Cl)c5F)CC4)C3)cc21` (stereo partly shown) [I-200], the DC50 was in the range of 10 to 100 nM. As for `Cn1c(=O)n(C2CCC(=O)NC2=O)c2ccc(CCCN3CCN(C[C@H]4CC[C@H](NC(=O)[C@@H]5NC6(CCCCC6)[C@@]6(C(=O)Nc7cc(Cl)ccc76)[C@H]5c5cccc(Cl)c5F)CC4)C(C(=O)O)C3)cc21` (stereo partly shown) [I-202], the figure is less than 10 nM; as for `Cn1c(=O)n(C2CCC(=O)NC2=O)c2ccc(N3CCC(CC4(C(=O)O)CCN(C[C@H]5CC[C@H](NC(=O)[C@@H]6NC7(CCCCC7)[C@@]7(C(=O)Nc8cc(Cl)ccc87)[C@H]6c6cccc(Cl)c6F)CC5)CC4)CC3)cc21` (stereo partly shown) [I-203], less than 10 nM; as for `Cc1ncsc1-c1ccc(CNC(=O)[C@@H]2C[C@@H](O)CN2C(=O)[C@@H](NC(=O)C2(F)CC2)C(C)(C)C)c(OCCCC2CCN(C[C@H]3CC[C@H](NC(=O)[C@@H]4NC5(CCCCC5)[C@@]5(C(=O)Nc6cc(Cl)ccc65)[C@H]4c4cccc(Cl)c4F)CC3)CC2)c1` [I-204], greater than 1000 nM. In the case of `O=C(O)Cn1c(=O)n(C2CCC(=O)NC2=O)c2ccc(C3CCN(C[C@H]4CC[C@H](NC(=O)[C@@H]5NC6(CCCCC6)[C@@]6(C(=O)Nc7cc(Cl)ccc76)[C@H]5c5cccc(Cl)c5F)CC4)CC3)cc21` (stereo partly shown) [I-206] it was 10 to 100 nM. As for `O=C1CCN(c2ccc(CCCCN3CCN(C[C@H]4CC[C@H](NC(=O)[C@@H]5NC6(CCCCC6)[C@@]6(C(=O)Nc7cc(Cl)ccc76)[C@H]5c5cccc(Cl)c5F)CC4)CC3)cc2)C(=O)N1` [I-208], the figure is greater than 1000 nM; as for `Cn1c(=O)n(C2CCC(=O)NC2=O)c2ccc(CC3(CC(=O)O)CCN(C[C@H]4CC[C@H](NC(=O)[C@@H]5NC6(CCCCC6)[C@@]6(C(=O)Nc7cc(Cl)ccc76)[C@H]5c5cccc(Cl)c5F)CC4)CC3)cc21` (stereo partly shown) [I-210], 10 to 100 nM; as for `Cn1c(=O)n(C2CCC(=O)NC2=O)c2ccc(CCCCCN3CCN(C[C@H]4CC[C@H](NC(=O)[C@@H]5NC6(CCCCC6)[C@@]6(C(=O)Nc7cc(Cl)ccc76)[C@H]5c5cccc(Cl)c5F)CC4)[C@H](C(=O)O)C3)cc21` (stereo partly shown) [I-211], less than 10 nM.

As to `Cn1c(=O)n(C2CCC(=O)NC2=O)c2ccc(CCCCCN3CCN(C[C@H]4CC[C@H](NC(=O)[C@@H]5NC6(CCCCC6)[C@@]6(C(=O)Nc7cc(Cl)ccc76)[C@H]5c5cccc(Cl)c5F)CC4)[C@@H](C(=O)O)C3)cc21` (stereo partly shown) [I-212], the DC50 is less than 10 nM. As for `Cn1c(=O)n(C2CCC(=O)NC2=O)c2ccc(CCCCN3CCN(C[C@H]4CC[C@H](NC(=O)[C@@H]5NC6(CCCCC6)[C@@]6(C(=O)Nc7cc(Cl)ccc76)[C@H]5c5cccc(Cl)c5F)CC4)[C@H](C(=O)O)C3)cc21` (stereo partly shown) [I-213], the DC50 is less than 10 nM. In the case of `Cn1c(=O)n(C2CCC(=O)NC2=O)c2ccc(CCCCN3CCN(C[C@H]4CC[C@H](NC(=O)[C@@H]5NC6(CCCCC6)[C@@]6(C(=O)Nc7cc(Cl)ccc76)[C@H]5c5cccc(Cl)c5F)CC4)[C@@H](C(=O)O)C3)cc21` (stereo partly shown) [I-214] it was less than 10 nM; in that of `Cn1c(=O)n(C2CCC(=O)NC2=O)c2ccc(CCCN3CCN(C[C@H]4CC[C@H](NC(=O)[C@@H]5NC6(CCCCC6)[C@@]6(C(=O)Nc7cc(Cl)ccc76)[C@H]5c5cccc(Cl)c5F)CC4)[C@@H](C(=O)O)C3)cc21` (stereo partly shown) [I-216], less than 10 nM.
